According to PMC4249368 (Antimicrobial Agents and Chemotherapy, 2014):
Values after ≈ are worked out from the molar mass of the structure shown. “Also recorded” adds a separate entry of the source. Where two headings read alike, the source gives them in different places. No end group written: not given here.

What was measured:
MSSA ATCC 25923 [1] = details: for MBC, 10% Human serum: Table S1, MHB with 10% human serum; for MBC, 50% Human serum: Table S1, MHB with 50% human serum; for MBC, MHB: Table S1, MHB without serum, clear wells plated onto agar, 37°C overnight
Method: MICs against MSSA ATCC 25923 were measured by broth microdilution according to the Clinical and Laboratory Standards Institute (CLSI) M7-A7 methodology ([30]). Briefly, serial 2-fold dilutions of each antibiotic were added into Costar nontreated polystyrene 96-well plates, and each well was inoculated with 50 μl of MSSA in MHB to a final concentration of approximately 5 × 10^5 CFU/ml. […] The dilution representing the MIC and two of the more and less concentrated dilutions were plated out onto Trypticase soy agar plates and enumerated to determine viable CFU/ml ([31]). […]
25923 in MHB media in the presence and absence of Human serum (10% and 50%) in
Corning NonTC microtitre plates (CLS3370)
a The MBCs were determined by plating out the clear wells onto an agar plate and were incubated at
37°C overnight. Each colony represents one viable bacterium. […]

MSSA ATCC 25923 [2] = assay: Membrane depolarization assay with DiSC3(5); format: cell-based, Staphylococcus aureus; details: for membrane depolarization (result in words): 0.1 to 30 μM, Fig. 4, n = 3
Method: Antibiotic-induced bacterial cytoplasmic membrane depolarization was determined by using the fluorescent dye 3,3-dipropylthiacarbocyanine [DiSC3(5); Sigma-Aldrich, Australia] as previously described ([38]) with a high-throughput modification. Briefly, mid-logarithmic-phase MSSA ATCC 25923 cells were collected by centrifugation (5,000 × rpm, 10 min), washed once and diluted to approximately 5 × 10^7 CFU/ml in buffer (5 mM HEPES, 5 mM glucose; pH 7.2). The cell suspension was incubated with 0.4 μM DiSC3(5) until dye uptake was maximal, as indicated by a stable reduction in fluorescence of assay medium. KCl at 100 mM was added to equilibrate the cytoplasmic and external K^+ concentrations. A 90-μl aliquot of cell suspension was transferred into an Optiplate 96-well white microplate (PerkinElmer Corp., Australia), and 10 μl of antibiotic was added, to yield a series of solutions ranging from 0.1 to 30 μM. A blank with only cell suspension and dye was used for background subtraction. The fluorescence intensity was monitored in real time by using a BMG Labtech PolarStar Omega multimode reader fitted with 620-10 and 665-10 excitation and emission filters, respectively, at an excitation wavelength of 622 nm and an emission wavelength of 670 nm. The membrane depolarization assays were performed in triplicate, and the fluorescence leakage (FL) was defined by the following equation: FL = (FF − FB) − (FI − FB). Here, FF was the final fluorescence intensity in assay medium after 30 min of treatment with antibiotic, FI was the initial fluorescence intensity of the cell suspension, and FB was the fluorescence intensity of the blank.

[3] = SPR binding to lipid bilayers on Biacore L1 chip; details: for normalized antibiotic bound to the three lipid bilayers (result in words): 10 μM, normalized to molecular weight and RULipid, Fig. 3B, n = 3
Method: Lipid stock solutions were prepared in chloroform and mixed at the described mass composition of POPC, POPC/POPG (8:2, wt/wt) and POPC/POPE (8:2, wt/wt) ([33]), and the chloroform was evaporated as previously described ([34]). The lipids were resuspended in 1 ml of filtered (0.22-μm pore size) running buffer (phosphate-buffered saline [PBS]; pH 7.3) and then sonicated for 25 min in 5-min intervals. Small unilamellar vesicles (SUVs) were prepared by extrusion through a polycarbonate filter with a 50-nm pore diameter ([35]).
SPR experiments were carried out with a Biacore T200 system (GE Health, Australia) using a Biacore vesicle capture (L1) sensor chip, which has lipophilic groups covalently attached to carboxymethylated dextran that facilitates direct lipid bilayer deposition ([34], [36]). All measurements were undertaken at a temperature of 25°C to maintain the lipid bilayer fluidity ([34]). SUVs at a total lipid concentration of 0.5 mg/ml were immediately passed across the chip surface for 60 min at a low flow rate of 2 μl/min, following three 30-s injections of 20 mM 3-cholamidopropyl-dimethylammonio-1-propane sulfonate (CHAPS) solution at a high flow rate of 30 μl/min to completely remove the captured vesicles from the sensor chip. To remove any multilamellar structures from the lipid surface and to stabilize the baseline, 10 mM NaOH was injected for 1 min at 50 μl/min. The coverage extent of the surface was later determined by a 5-min injection of 0.1 mg/ml bovine serum albumin (BSA) at a flow rate of 10 μl/min.
The antibiotics were serially diluted in running buffer and then injected sequentially from the lowest (0.01 μM) to the highest (10 μM) concentration at a flow rate of 20 μl/min for 180 s, followed by a dissociation of 300 s and a 1-min regeneration with 10 mM HCl at a flow rate of 10 μl/min. SPR experiments were performed in triplicate. The actual amount of antibiotic bound to each lipid bilayer was corrected by subtraction of the bulk refractive index difference (buffer control) and then normalized by dividing the antibiotic-bound resonance units (RUBound) obtained in the SPR sensorgrams (see Fig. 3A, below) by the corresponding antibiotic molecular weight and the resonance units of the individual lipid vesicle captured on the chip surface (RULipid) (see Fig. S1 in the supplemental material) by using the following equation: normalized antibiotic bound = (10^3 × RUBound)/(molecular weight × RULipid). Normalization against molecular weight and RULipid was necessary, as SPR units are mass dependent and RULipid values vary according to lipid type ([37]).

MSSA ATCC 25923 [4] = details: for MIC, MHB: Table S1, MHB without serum, Corning NonTC microtitre plates (CLS3370); for MIC in the presence of 50% human serum: MHB with 50% human serum, broth microdilution
Method: MSSA ATCC 25923 was purchased from the American Type Culture Collection (Manassas, VA). Mueller-Hinton broth (MHB; Bacto Laboratories Pty. Ltd.) was used to grow MSSA for determination of in vitro antibacterial activity in the presence and absence of 50% human serum (Life Technologies Australia, Melbourne, Australia) and time-kill assays. Luria-Bertani (LB) medium (Difco) and MHB adjusted with Ca^2+ (25 mg/liter) and Mg^2+ (12.5 mg/liter) (CA-MHB) were used for bacterial growth in the membrane depolarization assay and TEM, respectively. The phospholipids used for SPR analysis, 1-palmitoyl-2-oleoyl-sn-glycero-3-phosphoglycerol (POPG), 1-palmitoyl-2-oleoyl-sn-glycero-3-phosphocholine (POPC), and 1-palmitoyl-2-oleoyl-sn-glycero-3-phosphoethanolamine (POPE), were purchased from Auspep Pty. Ltd. (Melbourne, Australia).
MICs against MSSA ATCC 25923 were measured by broth microdilution according to the Clinical and Laboratory Standards Institute (CLSI) M7-A7 methodology ([30]). Briefly, serial 2-fold dilutions of each antibiotic were added into Costar nontreated polystyrene 96-well plates, and each well was inoculated with 50 μl of MSSA in MHB to a final concentration of approximately 5 × 10^5 CFU/ml. […] The dilution representing the MIC and two of the more and less concentrated dilutions were plated out onto Trypticase soy agar plates and enumerated to determine viable CFU/ml ([31]).

MSSA ATCC 25923 [5] = assay: TEM examination of bacterial ultrastructure; format: cell-based, Staphylococcus aureus; details: 3 h, 37°C, CA-MHB
Method: After centrifugation (8,000 × rpm, 3 min), the pellets were resuspended in 1 ml of 3% (vol/vol) glutaraldehyde in 0.1 M sodium cacodylate. Glutaraldehyde–fixed samples were washed twice with 0.1 M sodium cacodylate. To postfit cells, 1% (wt/vol) osmium tetraoxide was added. After the wash step, samples were stained with 2% (wt/vol) uranyl acetate in 50% ethanol. Samples were then dehydrated with graded ethanol solutions and infiltrated with Epon resin (ProSciTech, Townsville, Australia). All processes were performed on a Pelco 34700 Biowave microwave oven (Ted Pella Inc., Redding, CA). Ultrathin sections were cut at 60 to 70 nm by using a UC6 ultramicrotome (Leica). The sections were examined in a JEM 1011 TEM operated at 80 kV and photographed using a digital camera.

MSSA ATCC 25923 [6] = assay: Time-kill studies (CLSI M26-A); format: cell-based, Staphylococcus aureus
Method: Time-kill studies were carried out based on guideline M26-A of the CLSI ([32]), using Costar nontreated polystyrene 96-well plates. […] Culture aliquots were mixed with the charcoal suspension (25 mg/ml) to minimize antibiotic carryover. Viable cell counts were determined after 0, 0.5, 1, 2, 4, 6, 8, and 24 h of incubation at 37°C by plating serially diluted samples onto Trypticase soy agar plates. Bactericidal activity was defined as a ≥3-log10 CFU/ml decrease, in comparison with the baseline, after 24 h of incubation ([32]).

[7] = parameters: method as in PMID 23872123, PMID 9791177, PMID 16531990; details: Lipid II pyrophosphate moiety; cited from earlier work
[8] = parameters: method as in PMID 23872123, PMID 9791177, PMID 16531990; details: phospholipid bilayers; cited from earlier work
[9] = tested on: MurG-catalyzed reaction of peptidoglycan biosynthesis; details: relative to MIC against MSSA ATCC 25923; cited from earlier work
MSSA and MRSA strains = details: cited from earlier work
Excerpt: The importance of the membrane depolarization and bactericidal killing in vivo is difficult to quantify due to the limited published pharmacokinetic (PK) studies ([18], [19]), as well as its nonsystemic oral administration in human clinical trials. In addition, MIC determinations can be highly dependent on plate type, serum, and BSA ([18], [41]).

[10] = tested on: transglycosylation step of peptidoglycan biosynthesis; details: relative to MIC against MSSA ATCC 25923; cited from earlier work
[11] = MHB, broth microdilution CLSI M7-A7, ~5 × 10^5 CFU/ml, 24 h, 37°C, Costar nontreated polystyrene 96-well plates

Molecule: teicoplanin
- MBC, 10% Human serum (MSSA ATCC 25923 [1]): 0.25 µg/mL
- MBC, 50% Human serum (MSSA ATCC 25923 [1]): 0.5 µg/mL
- MBC, MHB (MSSA ATCC 25923 [1]): 4 µg/mL
- membrane depolarization (result in words) (MSSA ATCC 25923 [2]; 30 min treatment): measurable but minor fluorescence leakage at concentrations significantly higher than the MIC
- normalized antibiotic bound to the three lipid bilayers (result in words) [3]: bound preferentially to the anionic membrane over zwitterionic membranes
- MIC (MSSA ATCC 25923 [4]; [11]): 1 µg/mL
- MIC, MHB (MSSA ATCC 25923 [4]): 2 µg/mL

Molecule: CN[C@H](CC(C)C)C(=O)N[C@H]1C(=O)N[C@@H](CC(N)=O)C(=O)N[C@H]2C(=O)N[C@H]3C(=O)N[C@H](C(=O)N[C@H](C(=O)O)c4cc(O)cc(O)c4-c4cc3ccc4O)[C@H](O)c3ccc(c(Cl)c3)Oc3cc2cc(c3O[C@@H]2O[C@H](CO)[C@@H](O)[C@H](O)[C@H]2O[C@H]2C[C@](C)(N)[C@H](O)[C@H](C)O2)Oc2ccc(cc2Cl)[C@H]1O [vancomycin]
- morphological changes by TEM (MSSA ATCC 25923 [5]; 16× MIC): did not cause septal deformation or loss of midline
- MBC, 10% Human serum (MSSA ATCC 25923 [1]): 2 µg/mL (≈ 1.38 µM)
- MBC, 50% Human serum (MSSA ATCC 25923 [1]): 2 µg/mL (≈ 1.38 µM)
- MBC, MHB (MSSA ATCC 25923 [1]): 2 µg/mL (≈ 1.38 µM)
- fluorescence leakage (MSSA ATCC 25923 [2]; 12× MIC, 30 min): no leakage
- normalized antibiotic bound to the three lipid bilayers (result in words) [3]: negligible binding to each of the three different membranes
- MIC in the presence of 50% human serum (MSSA ATCC 25923 [4]; 24 h, 37°C): 2 µg/mL
- MIC (MSSA ATCC 25923 [4]; [11]): 1 µg/mL (≈ 0.69 µM)
- MIC, 10% Human serum (MSSA ATCC 25923 [4]; Table S1, MHB with 10% human serum, Corning NonTC plates): 1/2
- MIC, 50% Human serum (MSSA ATCC 25923 [4]; Table S1, MHB with 50% human serum, Corning NonTC plates): 2 µg/mL (≈ 1.38 µM)
- MIC, MHB (MSSA ATCC 25923 [4]): 2 µg/mL (≈ 1.38 µM)
- reduction in viable count (MSSA ATCC 25923 [6]; vancomycin at the MBC and above for 8 h): > 3 log10 CFU/ml

Molecule: nisin
- membrane depolarization (result in words) (MSSA ATCC 25923 [2]; 30 min treatment): dramatic membrane depolarization at the MIC and above
- concentration at which membrane depolarization occurs (MSSA ATCC 25923 [2]; 30 min treatment, DiSC3(5), normalized to citropin 1.1 at 10 μM, ramoplanin 3× MIC gives similar extent as […] MIC nisin): 0.25 × MIC
- normalized antibiotic bound to the three lipid bilayers (result in words) [3]: no binding to either anionic or zwitterionic phospholipid bilayers
- MIC (MSSA ATCC 25923 [4]; [11]): 32 µg/mL
- Kd [7]: 0.01 µM
- Kd [8]: 100 µM

Molecule: ramoplanin
- IC50, MurG-catalyzed reaction [9]: 20 × MIC
- morphological changes by TEM (MSSA ATCC 25923 [5]; 1× MIC): deformed septa that were slightly thickened, misshapen, and lacked distinct septal midlines; also recorded: appearance of mesosome structures in cell membranes
- MBC as multiple of MIC (MSSA ATCC 25923 [1]): 2 × MIC
- MBC, 50% Human serum (MSSA ATCC 25923 [1]): 0.5 µg/mL
- MBC, MHB (MSSA ATCC 25923 [1]): 8/2
- MBC (MSSA ATCC 25923 [1]; lowest concentration yielding 99.9% reduction in initial colony count after 24 h, MHB): 4 µg/mL
- effect of 50% human serum on MIC (MSSA and MRSA strains): not affected
- membrane depolarization (result in words) (MSSA ATCC 25923 [2]; 30 min treatment): dose-dependent membrane depolarization but less efficiently than nisin
- normalized antibiotic bound to the three lipid bilayers (result in words) [3]: POPC:POPG (8:2) > POPC > POPC:POPE (8:2)
- SPR dissociation after completion of injection ([3]; 0.01 to 1 μM): complete dissociation
- SPR association with membranes at low concentrations ([3]; 0.01 to 1 μM, PBS pH 7.3, 25°C): negligible association
- SPR binding response (RUBound) ([3]; 3 and 10 μM, both anionic and zwitterionic membranes, 180 s injection, PBS pH 7.3, 25°C): ~6,000 RU
- concentration at which binding to anionic and zwitterionic membranes occurs ([3]; dose-dependent): ≥ 3 µM
- MIC in the presence of 50% human serum (MSSA ATCC 25923 [4]; 24 h, 37°C): 0.5 µg/mL
- 50% inhibitory concentration (IC50), transglycosylation [10]: 0.25 × MIC
- time to bactericidal activity (MSSA ATCC 25923 [6]; concentrations equal to or above the MBC): less than 4 h

Molecule: GLFDVIKKVASVIGGL-NH2 [citropin 1.1]
- MIC (MSSA ATCC 25923 [4]; ATCC 25923, 24 h): 32 µg/mL
